These results are taken from patent publication US9657079B2, “Truncated GLP-1 derivatives and their therapeutical use” (Novo Nordisk A/S, priority 2007, dated 2017).

Where a SMILES comes first, the peptide text is derived from it. [ ]: non-standard residue; d: D form. Aib = CC(C)(N)C(=O)O

Assay [1] deals with T1, human GLP-1 receptor (Homo sapiens, UniProt P43220).
T1 construct: expressed in transfected cells; purified plasma membranes
The assay is described as follows: Stimulation of cAMP formation, plasma membranes from BHK467-12A (tk-ts13) cells, AlphaScreen cAMP kit. The class given is biochemical. The conditions noted are these: membranes of BHK467-12A (tk-ts13) expressing the human GLP-1 receptor; read-out: potency (EC50), cAMP formation. As for the experimental part: In particular embodiments (i) baby hamster kidney (BHK) cells expressing the cloned human GLP-1 receptor are used, preferably BHK-467-12A, more preferably BHK-467-12A (tk-ts13); (ii) the cells are grown in DMEM media with the addition of 100 IU/mL penicillin, 100 μg/mL streptomycin, 5% fetal calf serum and 0.5 mg/mL Geneticin G-418 (Life Technologies), preferably at 5% CO2; (iii) the cells, preferably at approximately 80% confluence, are washed twice in phosphate buffered saline; (iv) the cells are harvested with an aqueous solution of tetrasodium salt of ethylenediaminetetraacetic acid, such as Versene; (v) plasma membranes are prepared from the cells by homogenisation, preferably in buffer 1; the homogenate is centrifuged, e.g. at 48,000×g for 15 min at 4° C.; and/or (vii) the pellet is suspended by homogenization in buffer 2. Steps (vi) and (vii) are preferably repeated, e.g. one or two times more.
The functional receptor assay may be carried out as described in Example 21 by measuring cyclic AMP (cAMP) as a response to stimulation by the insulinotropic agent. cAMP formed is preferably quantified by the AlphaScreen™ cAMP Kit (Perkin Elmer Life Sciences). Incubations may be carried out in half-area 96-well microtiter plates in a total volume of 50 μL buffer 3 (50 mM Tris-HCI, 5 mM HEPES, 10 mM MgCl2, pH 7.4) and with the following additions: 1 mM ATP, 1 μM GTP, 0.5 mM 3-isobutyl-1-methylxanthine (IBMX), 0.01% Tween-20, 0.1% BSA, 6 μg membrane preparation, 15 μg/mL acceptor beads, 20 μg/mL donor beads preincubated with 6 nM biotinyl-cAMP. Analogues or derivatives to be tested for agonist activity are preferably dissolved and diluted in buffer 3. GTP is freshly prepared for each experiment. […]
For comparison, the potency of truncated natural, human GLP-1(7-33) was also determined.
Purified plasma membranes from a stable transfected cell line, BHK467-12A (tk-ts13), expressing the human GLP-1 receptor was stimulated with GLP-1 compound in question, and the potency of cAMP production was measured using the AlphaScreen™ cAMP Assay Kit from Perkin Elmer Life Sciences. […]
Cells at approximate 80% confluence are washed 2× with PBS (Phosphate Buffered Saline) and harvested with Versene (aqueous solution of the tetrasodium salt of ethylenediaminetetraacetic acid), centrifuged 5 min at 1000 rpm and the supernatant removed. […] Suspension in Buffer 2, homogenization and centrifugation is repeated once and the membranes are resuspended in Buffer 2 and ready for further analysis or stored at −80° C.
The functional receptor assay was carried out by measuring the peptide induced cAMP production by The AlphaScreen Technology. […] Formed cAMP is counted and measured at a Alpha Fusion Microplate Analyzer. […]

For assay [2], the target named is T2, isolated N-terminal extracellular domain of the GLP-1R receptor (nGLP-1R) (Homo sapiens, UniProt P43220).
T2 construct: isolated N-terminal extracellular domain of the GLP-1R receptor (nGLP-1R); made in house
T2 sequence (P43220 24-139 limits assumed): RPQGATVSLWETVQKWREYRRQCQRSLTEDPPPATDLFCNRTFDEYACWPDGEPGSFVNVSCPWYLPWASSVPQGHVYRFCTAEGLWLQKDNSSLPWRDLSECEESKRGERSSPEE
Nature of the assay: Displacement of 125I-Exendin-4(9-39) from nGLP-1R (SPA). The class given is binding. The conditions noted are these: SPA beads, read-out: affinity to nGLP-1R (IC50). The method, then:
The protein is then biotinylated and immobilized, preferably on streptavidin-coated SPA beads. The nGLP1R in a suitable buffer such as 0.1M NaHCO3 may be biotinylated using 75 μg BNHS (Sigma H1759) to 1 mg protein. The biotinylated nGLP1R is subsequently preferably dialyzed against PBS. […] The plates are incubated on a shaker, preferably at RT for 3 hours. The SPA particles may be spun down by centrifugation, e.g. for 10 min at 1500 rpm, and the plates are counted, e.g. in a TopCount-NXT (PerkinElmer).
The nGLP1R in 0.1M NaHCO3 was biotinylated using 75 μg BNHS (Sigma H1759) to 1 mg protein. The biotinylated nGLP1R was subsequently dialyzed against PBS. All reagents and derivatives were diluted in PBS with 0.05% v/v Tween 20. […] The plates were incubated on a shaker at RT for 3 hours. The SPA particles were spun down by centrifugation for 10 min at 1500 rpm and the plates were counted in a TopCount-NXT (PerkinElmer).

The target of assay [3] is T1, human GLP-1 receptor. The assay is described as follows: Displacement of 125I-GLP-1 from the GLP-1 receptor, BHK tk-ts13 membranes (SPA). To be noted: displacement of 125I-GLP-1, BHK tk-ts13 membranes, read-out: IC50, binding affinity to the GLP-1 receptor. From the text: In a second aspect, the GLP-1 analogue or derivative thereof (“GLP-1 compound”) has a high affinity to the GLP-1 receptor. The affinity to the GLP-1 receptor may be determined as described in Example 23, i.e. by way of displacement of ^125I-GLP-1 from the receptor. BHK cells may be used for membrane preparation, preferably strain tk-ts13. The membranes may be purified, preferably as described in Example 23, A preferred binding assay method is the SPA assay of Example 23.
The binding affinity of a number of GLP-1 compounds of the invention (compounds of Examples 1-7, and 9-18) to the human GLP-1 receptor was measured by way of their ability to displace ^125I-GLP-1 from the receptor.
Species (in vitro): Hamster
Biological End Point: Receptor Binding
The cells (approx. 80% confluence) were washed twice in PBS and harvested (PBS+EDTA or Versene), following which they were separated by centrifugation at 1000 rpm for 5 min. The cells/cell pellet must be kept on ice to the extent possible in the subsequent steps. The cell pellet was homogenised with Ultrathurrax for 20-30 seconds in a suitable amount of Buffer 1 (depending on the amount of cells, but e.g. 10 ml). The homogenate as centrifuged at 20000 rpm for 15 minutes. The pellet was resuspended (homogenised) in 10 ml Buffer 2 and re-centrifuged. This step was repeated once more. The resulting pellet was resuspended in Buffer 2, and the protein concentration was determined. The membranes were stored at −80° C.
Buffer 1: 20 mM Na-HEPES+10 mM EDTA, pH 7.4
Buffer 2: 20 mM Na-HEPES+0.1 mM EDTA, pH 7.4
Test compounds/peptides, membranes, SPA-particles and [^125I] are diluted in assay buffer. 25 ul (micro liter) of test compounds/peptides are added to Optiplate. Buffer is added (50 ul). Add 5-10 ug protein/sample (50 ul) corresponding to 0.1-0.2 mg protein/ml (to be preferably optimised for each membrane preparation). Add SPA-particles (Wheatgerm agglutinin SPA beads) RPNQ 0001) 0.5 mg/well (50 ul). Start the incubation with [I^125]-GLP-1 (final concentration 0.05 nM corresponding to 49.880 DPM, 25 ul). The plates are sealed with PlateSealer. Incubate for 120 minutes at 30° C. while shaking. The plates are centrifuged (1500 rpm, 10 min) and counted in Topcounter.
Assay buffer: 50 mM HEPES

T1 sequence (P43220 24-463): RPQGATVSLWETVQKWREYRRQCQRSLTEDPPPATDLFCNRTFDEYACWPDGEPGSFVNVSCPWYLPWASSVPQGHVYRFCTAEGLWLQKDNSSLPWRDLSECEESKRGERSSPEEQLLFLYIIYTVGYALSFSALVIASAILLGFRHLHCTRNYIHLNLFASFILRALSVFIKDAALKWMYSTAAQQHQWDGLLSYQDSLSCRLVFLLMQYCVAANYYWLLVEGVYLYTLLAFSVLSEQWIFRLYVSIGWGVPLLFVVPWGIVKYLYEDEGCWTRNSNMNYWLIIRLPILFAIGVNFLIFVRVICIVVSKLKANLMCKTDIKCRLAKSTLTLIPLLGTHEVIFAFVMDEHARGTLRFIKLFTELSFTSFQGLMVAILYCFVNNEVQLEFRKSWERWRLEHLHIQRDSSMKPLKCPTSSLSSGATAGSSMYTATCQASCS

By EC50 is commonly meant the midpoint of the concentration-response curve. Broadly, the IC50 is the concentration needed to halve the response being measured. `CC[C@H](C)[C@H](NC(=O)[C@H](Cc1ccccc1)NC(=O)[C@H](CCC(=O)O)NC(=O)[C@H](CCCNC(=N)N)NC(=O)[C@H](C)NC(=O)[C@H](C)NC(=O)[C@H](CCC(N)=O)NC(=O)[C@H](CCC(=O)O)NC(=O)[C@H](CCC(=O)O)NC(=O)[C@H](CC(C)C)NC(=O)[C@H](Cc1ccc(O)cc1)NC(=O)[C@H](CO)NC(=O)[C@H](CO)NC(=O)[C@@H](NC(=O)[C@H](CC(=O)O)NC(=O)[C@H](CO)NC(=O)[C@@H](NC(=O)[C@H](Cc1ccccc1)NC(=O)[C@@H](NC(=O)CNC(=O)[C@H](CCC(=O)O)NC(=O)[C@H](C)NC(=O)[C@@H](N)Cc1c[nH]cn1)[C@@H](C)O)[C@@H](C)O)C(C)C)C(=O)N[C@@H](C)C(=O)N[C@@H](Cc1c[nH]c2ccccc12)C(=O)N[C@@H](CC(C)C)C(=O)N[C@H](C(N)=O)C(C)C` [Example 1, [Glu22,Arg26]GLP-1 (7-33) Amide] (H-HAEGTFTSDVSSYLEEQAAREFIAWLV-NH2): in assay [1], the EC50 is under 0.3 nM. Also, the half-maximal inhibitory concentration (IC50) in assay [2] is 200 to 1500 nM; in assay [3], 0.24 to 44 nM.

Regarding `CC[C@H](C)[C@H](NC(=O)[C@H](Cc1ccccc1)NC(=O)[C@H](CCC(=O)O)NC(=O)[C@H](CCCNC(=N)N)NC(=O)[C@@H](NC(=O)[C@H](C)NC(=O)[C@H](CCC(N)=O)NC(=O)[C@H](CCC(=O)O)NC(=O)[C@H](CCC(=O)O)NC(=O)[C@H](CC(C)C)NC(=O)[C@H](Cc1ccc(O)cc1)NC(=O)[C@H](CO)NC(=O)[C@H](CO)NC(=O)[C@@H](NC(=O)[C@H](CC(=O)O)NC(=O)[C@H](CO)NC(=O)[C@@H](NC(=O)[C@H](Cc1ccccc1)NC(=O)[C@@H](NC(=O)CNC(=O)[C@H](CCC(=O)O)NC(=O)[C@H](C)NC(=O)[C@@H](N)Cc1c[nH]cn1)[C@@H](C)O)[C@@H](C)O)C(C)C)C(C)C)C(=O)N[C@@H](C)C(=O)N[C@@H](Cc1c[nH]c2ccccc12)C(=O)N[C@@H](CC(C)C)C(=O)N[C@H](C(N)=O)C(C)C` [Example 4, [Glu22, Val25, Arg26] GLP-1 (7-33)amide] (H-HAEGTFTSDVSSYLEEQAVREFIAWLV-NH2), the EC50 in assay [1] was under 0.3 nM. In addition, the results for the IC50 in assay [2] and in assay [3] were 200 to 1500 nM and 0.24 to 44 nM, respectively.

In the case of `CC[C@H](C)[C@H](NC(=O)[C@H](Cc1ccccc1)NC(=O)[C@H](CCC(=O)O)NC(=O)[C@H](CCCNC(=N)N)NC(=O)[C@@H](NC(=O)[C@H](C)NC(=O)[C@H](CCC(N)=O)NC(=O)[C@H](CCC(=O)O)NC(=O)[C@H](CCC(=O)O)NC(=O)[C@H](CCCCN)NC(=O)[C@H](Cc1ccc(O)cc1)NC(=O)[C@H](CO)NC(=O)[C@H](CO)NC(=O)[C@@H](NC(=O)[C@H](CC(=O)O)NC(=O)[C@H](CO)NC(=O)[C@@H](NC(=O)[C@H](Cc1ccccc1)NC(=O)[C@@H](NC(=O)CNC(=O)[C@H](CCC(=O)O)NC(=O)C(C)(C)NC(=O)[C@@H](N)Cc1c[nH]cn1)[C@@H](C)O)[C@@H](C)O)C(C)C)C(C)C)C(=O)N[C@@H](CCC(=O)O)C(=O)N[C@@H](Cc1c[nH]c2ccccc12)C(=O)N[C@@H](CC(C)C)C(=O)N[C@H](C(N)=O)C(C)C` [Example 5, [Aib8,Lys20,Glu22,Val25,Arg26,Glu30] GLP-1 (7-33) Amide] (H-H[Aib]EGTFTSDVSSYKEEQAVREFIEWLV-NH2), the EC50 in assay [1] is under 0.3 nM. Also, the results for the IC50 in assay [2] and in assay [3] were 200 to 1500 nM and 0.24 to 44 nM, respectively.

As for `CC[C@H](C)[C@H](NC(=O)[C@H](Cc1ccccc1)NC(=O)[C@H](CCC(=O)O)NC(=O)[C@H](CCCNC(=N)N)NC(=O)[C@H](C)NC(=O)[C@H](C)NC(=O)[C@H](CCC(N)=O)NC(=O)[C@H](CCC(=O)O)NC(=O)[C@H](CCC(=O)O)NC(=O)[C@H](CC(C)C)NC(=O)[C@H](Cc1ccc(O)cc1)NC(=O)[C@H](CO)NC(=O)[C@H](CO)NC(=O)[C@@H](NC(=O)[C@H](CC(=O)O)NC(=O)[C@H](CO)NC(=O)[C@@H](NC(=O)[C@H](Cc1ccccc1)NC(=O)[C@@H](NC(=O)CNC(=O)[C@H](CCC(=O)O)NC(=O)[C@H](C)NC(=O)[C@@H](N)Cc1c[nH]cn1)[C@@H](C)O)[C@@H](C)O)C(C)C)C(=O)N[C@@H](C)C(=O)N[C@@H](Cc1c[nH]c2ccccc12)C(=O)N[C@@H](CC(C)C)C(=O)N[C@H](C(=O)O)C(C)C` [Example 7, [Glu22, Arg26]GLP-1(7-33)peptide] (H-HAEGTFTSDVSSYLEEQAAREFIAWLV-OH), the EC50 in assay [1] was under 0.3 nM. The half-maximal inhibitory concentration (IC50) in assay [2] was in the range of 200 to 1500 nM; in assay [3], 0.24 to 44 nM.
